Data as given in BigSolDB 2.1.
Values joined by “and” are separate entries in the source; they are usually repeats but may differ in a detail not shown here. Equal values may be shown once.

C[C@@H](O[C@H]1OCCN(Cc2n[nH]c(=O)[nH]2)[C@H]1c1ccc(F)cc1)c1cc(C(F)(F)F)cc(C(F)(F)F)c1
Conditions | solubility (mole fraction)
in acetone, 284.75 K | 0.00512
in acetone, 289.85 K | 0.00582
in acetone, 291.45 K | 0.00601
in acetone, 295.95 K | 0.00663
in acetone, 299.85 K | 0.00719
in acetone, 301.45 K | 0.00741
in acetone, 303.75 K | 0.00778
in acetone, 305.65 K | 0.00808
in acetone, 307.55 K | 0.0084
in acetone, 313.85 K | 0.00955
in acetone, 317.75 K | 0.0104
in acetone, 324.65 K | 0.0118
in acetonitrile, 285.55 K | 0.000172
in acetonitrile, 289.55 K | 0.000196
in acetonitrile, 293.45 K | 0.000235
in acetonitrile, 295.95 K | 0.000262
in acetonitrile, 302.85 K | 0.000344
in acetonitrile, 304.35 K | 0.000368
in acetonitrile, 306.55 K | 0.000398
in acetonitrile, 309.55 K | 0.000444
in acetonitrile, 312.35 K | 0.000509
in acetonitrile, 318.85 K | 0.00063
in acetonitrile, 320.85 K | 0.00067
in acetonitrile, 327.95 K | 0.000853
in ethanol, 283.55 K | 0.00166
in ethanol, 290.85 K | 0.00209
in ethanol, 293.55 K | 0.00223
in ethanol, 295.95 K | 0.0024
in ethanol, 298.35 K | 0.00251
in ethanol, 301.55 K | 0.00279
in ethanol, 303.85 K | 0.00294
in ethanol, 306.25 K | 0.00316
in ethanol, 308.25 K | 0.00333
in ethanol, 315.25 K | 0.00396
in ethanol, 318.45 K | 0.00432
in ethanol, 324.85 K | 0.00505
in methanol, 284.45 K | 0.00314
in methanol, 288.75 K | 0.00343
in methanol, 292.15 K | 0.00374
in methanol, 296.35 K | 0.00405
in methanol, 298.45 K | 0.00422
in methanol, 300.75 K | 0.00445 and 0.00463
in methanol, 302.65 K | 0.00495
in methanol, 306.65 K | 0.00513
in methanol, 308.45 K | 0.00568
in methanol, 313.65 K | 0.00619
in methanol, 318.25 K | 0.00676
in n-butanol, 285.45 K | 0.00115
in n-butanol, 288.85 K | 0.00131
in n-butanol, 293.25 K | 0.00154
in n-butanol, 295.45 K | 0.00164
in n-butanol, 298.15 K | 0.00177
in n-butanol, 301.75 K | 0.002
in n-butanol, 303.75 K | 0.00219
in n-butanol, 306.35 K | 0.00235
in n-butanol, 308.85 K | 0.00258
in n-butanol, 313.45 K | 0.00292
in n-butanol, 317.45 K | 0.00335
in n-butanol, 322.25 K | 0.00392
in n-propanol, 283.75 K | 0.00127
in n-propanol, 290.75 K | 0.00162
in n-propanol, 294.75 K | 0.00187
in n-propanol, 296.95 K | 0.00198
in n-propanol, 298.55 K | 0.00207
in n-propanol, 300.15 K | 0.00215
in n-propanol, 303.05 K | 0.00241
in n-propanol, 306.25 K | 0.00262
in n-propanol, 308.75 K | 0.00285
in n-propanol, 314.35 K | 0.00331
in n-propanol, 318.35 K | 0.0037
in n-propanol, 325.35 K | 0.00463
